“And” between values parts separate entries of the source, which are not always exact repeats. Equal entries are not always repeated. “Also recorded” adds a separate entry of the source. Where two headings read alike, the source gives them in different places.
Tests used:
[1] = Sprague-Dawley, rat, in vivo, 2 h
Experimental: (§5) Two hours after the last treatment, animals were euthanized with an overdose of pentobarbital and the eye globes removed. One eye of each rat was taken whole, while the fellow eyes were dissected, and retinas and vitreous humors were separately taken. Whole eyes were cut in small pieces and separately homogenized with an Ultra-turrax homogenizer for 3 min on ice at 4 °C in 0.25 mL of methanol, then subjected to 1 min of ultrasonication in a cold-water bath. The five retinas were pooled together and extracted as before in 0.1 mL of methanol. Each vitreous body was diluted with 0.05 mL of methanol and sonicated. All samples were finally centrifuged 10 min at 10,000× g rpm and the supernatants were saved frozen for further analysis. […] The operational MS parameters of the instrument were: gas temperature, 350 °C; gas flow, 5 L/min; nebulizer, 20 psi; capillary, 3500 V; collision energy, 15 V; dwell-time, 200 msec; fragmentor, 135 V.

MT2 melatonin receptor = details: read-out: Affinity of MT2 melatonin receptor; cited from earlier work
in vivo = details: rat
Experimental: as §5

IL-1β = assay: Western blot of retinal homogenates, IL-1β; format: in vivo, rat; details: retina, MCE model, versus respective vehicle
Experimental: (§1) The model was originally developed in rabbits and then applied to rodents. It is based on the injection of 2% MCE in sterile saline in the anterior chamber of the eye. The MCE used in the present study (M0512; Sigma Aldrich, St. Louis, MO, USA) is pure and has a molecular weight of about 88,000 and, when dissolved in aqueous solution at 2% gives a solution with a viscosity ranging from 3500 to 5600 cps. Rats, anesthetized with an intraperitoneal injection of pentobarbital (30 mg/kg), were injected into the anterior chamber with 15 µL of MCE in both eyes using a 18G needle in agreement with published protocols. […] The eyes of each rat were evaluated for unintended adverse effects of intraocular injection -e.g., cataract, corneal opacity or edema that could impact electrophysiological parameters and/or tonometer accuracy. […]
(§2) After animal euthanization with an overdose of pentobarbital, retinas were isolated and stored at −80 °C. […] Protein concentration was measured using the Micro BCA Protein Assay (Thermo Fisher Scientific, Waltham, MA, USA). […] Blots were blocked for 1 h with 5% skim milk and incubated overnight at 4 °C with the primary antibodies listed in Supplementary Table S1 that are routinely used to detect the inflammatory and the apoptotic markers as determined in the present study. β-actin was used as loading control. […]

[2] = tested on: MCE rat model of hypertensive glaucoma; assay: Pattern ERG (PERG); format: in vivo; details: two weeks after MCE
Experimental: (§3) The model was originally developed in rabbits and then applied to rodents. It is based on the injection of 2% MCE in sterile saline in the anterior chamber of the eye. The MCE used in the present study (M0512; Sigma Aldrich, St. Louis, MO, USA) is pure and has a molecular weight of about 88,000 and, when dissolved in aqueous solution at 2% gives a solution with a viscosity ranging from 3500 to 5600 cps. Rats, anesthetized with an intraperitoneal injection of pentobarbital (30 mg/kg), were injected into the anterior chamber with 15 µL of MCE in both eyes using a 18G needle in agreement with published protocols. […] The eyes of each rat were evaluated for unintended adverse effects of intraocular injection -e.g., cataract, corneal opacity or edema that could impact electrophysiological parameters and/or tonometer accuracy.
(§4) Eye drops (10 µL) were administered to both eyes two times a day over two weeks after MCE injection. Eye drops were instilled at 10 a.m. and at 6 p.m.
PERG responses, mainly generated by RGC activity, can be useful for assessing RGC function in conditions such as glaucoma and ischemic optic neuropathy. PERG responses were evoked using an alternating pattern of black and white horizontal bars delivered on a stimulus display unit from a commercially available PERG system (SB700 Advanced, Nikon-Europe, Amsterdam, The Netherlands). Stimuli consisted in 0.05 cycles/deg black and white bars reversing at 1 Hz presented at 98% contrast. The pattern stimuli were administered through a light emitting diode display with a mean luminance of 50 cd/m^2 aligned at about 20 cm from the corneal surface. A total of 200 signals were averaged. Each animal was placed at the same fixed position in front of the monitor to prevent recording variability due to animal placement. PERG recordings were sequentially conducted in both eyes. The PERG response was evaluated by measuring the amplitude of the N35-P50 wave (from the trough of the negative peak N35, a small deflection near 35 ms after the stimulus, to the peak of the positive peak P50, a deflection near 50 ms after the stimulus) and the P50-N95 wave (from the peak of the positive peak P50 to the trough of the negative peak N95, a deflection near 95 ms after the stimulus). The implicit time was determined by measuring the time from the onset of the stimulus to the P50 and N95 peaks.

Bax/Bcl-2 = assay: Western blot of retinal homogenates, Bax/Bcl-2 ratio; format: in vivo, rat; details: retina, MCE model, versus respective vehicle
Experimental: as §1, §2

IL-4 = assay: Western blot of retinal homogenates, IL-4; format: in vivo, rat; details: retina, MCE model, versus respective vehicle
Experimental: as §1, §2

active caspase 3 = assay: Western blot of retinal homogenates, active caspase 3; format: in vivo, rat; details: retina, MCE model, versus respective vehicle
Experimental: as §1, §2

[3] = after administration of 0.1% eye drops; cited from earlier work
[4] = tested on: MCE rat model of hypertensive glaucoma; assay: Photopic full-field ERG, photopic negative response (PhNR); format: in vivo; details: two weeks after MCE; versus respective vehicle
Experimental: as §3, §4

IL-10 = assay: Western blot of retinal homogenates, IL-10; format: in vivo, rat; details: retina, MCE model, versus respective vehicle
Experimental: as §1, §2

Brn3a-positive RGCs = assay: RGC density by Brn3a immunohistochemistry in retinal flat mounts; format: in vivo, rat; details: for RGC loss spared: MCE reduced RGC density by about 29%; for RGC density (% of control), Central: central retina; for RGC density (% of control), Central / RGC density (% of control), Middle / RGC density (% of control), Peripheral: MCE + treatment, mean ± SEM, n = 6; for RGC density (% of control), Middle: middle retina; for RGC density (% of control), Peripheral: peripheral retina
Experimental: as §3, §4
After animal euthanization with an overdose of pentobarbital, six retinas from independent rats for each experimental group were explanted. Retinas were then fixed for 90 min at 4 °C in 4% paraformaldehyde in 0.1 M phosphate buffer (PB) and stored at 4 °C in 25% sucrose in 0.1 M PB. Retinal ganglion cells were labeled incubating the retinas for 24 h at 4 °C with a mouse monoclonal antibody against Brn3a (1:100 in PB containing 5% BSA and 2% TritonX-100; sc-8429; Santa Cruz Biotechnology, Santa Cruz, CA, USA). Retina whole mounts were then washed with PB and incubated overnight at 4 °C in an AlexaFluor555-conjugated secondary antibody (1:100; A-32727; Molecular Probes, Eugene, OR, USA). Finally, retinas were washed with PB, mounted on glass slides with the photoreceptor side facing down and viewed with a fluorescence microscope (Ni-E; Nikon-Europe, Amsterdam, The Netherlands). Images of the entire retina were acquired by a DS-Fi1c camera (Nikon-Europe) and Brn3a-positive cells were counted using the NIS-Elements software (Nikon-Europe). […] In total, 12 images were taken from each retina. The density of Brn3a-positive cells (number of cells per mm^2) was compared between the different experimental groups. Quantification was performed in a masked manner.

IL-6 = assay: Western blot of retinal homogenates, IL-6; format: in vivo, rat; details: retina, MCE model, versus respective vehicle
Experimental: as §1, §2

TNF-α = assay: Western blot of retinal homogenates, TNF-α; format: in vivo, rat; details: retina, MCE model, versus respective vehicle
Experimental: as §1, §2

Iba1 = assay: Western blot of retinal homogenates, Iba1; format: in vivo, rat; details: retina, MCE model, versus respective vehicle
Experimental: as §1, §2

GFAP = assay: Western blot of retinal homogenates, GFAP; format: in vivo, rat; details: retina, MCE model, versus respective vehicle
Experimental: as §1, §2

[5] = brimonidine eye drops in monkeys; cited from earlier work
[6] = tested on: MCE rat model of hypertensive glaucoma; assay: IOP measurement by tonometry in the MCE model; format: in vivo; details: after two weeks of eye drops twice a day; in respect to the respective vehicle (vehicle 1 saline for timolol, brimonidine; vehicle 2 nanomicellar for melatonin/agomelatine)
Experimental: as §3, §4

MT1 melatonin receptor = details: read-out: Affinity of MT1 melatonin receptor; cited from earlier work
[7] = Pharmacokinetics study: eye tissue distribution of melatonin/agomelatine eye drops by HPLC/MS/MS in healthy rats; details: for concentration at 2 h: rat, topical, 40 µg
Experimental: as §5

[8] = of 120 µg given in 3 administrations of 40 µg

| SMILES | Ki (MT2 melatonin receptor) | Reduction of IL-1β levels (IL-1β) | Amplitude of the N35-P50 and P50-N95 waves, effect versus vehicle [2] | MCE-induced increase in the implicit time of the P50 and N95 components [2] | Reduction of the Bax/Bcl-2 ratio (Bax/Bcl-2) | Increase of IL-4 levels (IL-4) | Decrease of the levels of the active form of caspase 3 (active caspase 3) | PhNR amplitude [4] | Increase of IL-10 levels (IL-10) | RGC loss spared (Brn3a-positive RGCs) | RGC density (% of control), Central (Brn3a-positive RGCs) | RGC density (% of control), Middle (Brn3a-positive RGCs) | RGC density (% of control), Peripheral (Brn3a-positive RGCs) | Reduction of IL-6 levels (IL-6) | Reduction of TNF-α levels (TNF-α) | Reduction of Iba1 levels (Iba1) | Reduction of GFAP levels (GFAP) | also measured |
| --- | --- | --- | --- | --- | --- | --- | --- | --- | --- | --- | --- | --- | --- | --- | --- | --- | --- | --- |
| COc1ccc2[nH]cc(CCNC(C)=O)c2c1 [melatonin] | 0.38 nM |  |  |  |  |  |  |  |  |  |  |  |  |  |  |  |  | Fraction of the 120 µg given retained in the whole eye [1]: roughly 1%; concentration at 2 h (in vivo; Sprague-Dawley, Concentration in the retina (molar)): ~17 nM; concentration at 2 h (in vivo; Concentration in the retina (molar)): 17 nM; concentration at 2 h (in vivo; Concentration in the vitreous humor (molar)): 43 nM |
| Brc1c(NC2=NCCN2)ccc2nccnc12 [brimonidine] |  | did not affect | partly prevented the reduction | prevented | ~9.7 fold | did not affect | ~2.2 fold | almost restoring the PhNR amplitude to control levels | did not affect | spared almost completely; also recorded: almost completely prevented | 88 ± 3 % of control | 91 ± 6 % of control | 91 ± 3 % of control | did not affect | did not affect | not affecting | about 1.6 fold | Amplitude of the P50-N95 wave, lower than in controls ([2]; MCE alone about 55% reduced): ~25%; Amplitude of the N35-P50 wave, lower than in controls ([2]; MCE alone about 60% reduced): about 24%; Vitreous concentration [3]: 2 nM; Concentration values after eye drops [5]: around 80 nM |
| CC(C)(C)NC[C@H](O)COc1nsnc1N1CCOCC1 [timolol] |  | did not affect | did not differ | did not affect | about 1.6 fold | did not affect | about 1.3 fold | did not differ | did not affect | about 11% | 78 ± 4 *^,§ % of control | 83 ± 3 *^,§ % of control | 81 ± 4 *^,§ % of control | did not affect | did not affect | did not affect | did not affect | Reduction of the MCE-induced increase in IOP [6]: about 32% |
| COc1ccc2cccc(CCNC(C)=O)c2c1 [agomelatine] | 0.12 nM |  |  |  |  |  |  |  |  |  |  |  |  |  |  |  |  | Ki (MT1 melatonin receptor): 0.01 nM; concentration at 2 h ([7]; Sprague-Dawley, retina, Concentration in the retina (molar), converted from ng/mg): ~378 nM; concentration at 2 h ([7]; Sprague-Dawley, retina, Concentration, pool of retinas, pool of retinas of animals 1 to 5, 3 x 40 µg eye drops, 2 h after last instillation): 96 ng/g; concentration at 2 h ([7]; Sprague-Dawley, vitreous humor, Concentration, vitreous, individual animals 1-5, 3 x 40 µg eye drops, 2 h after last instillation): 71 ng/g; concentration at 2 h ([7]; Sprague-Dawley, vitreous humor, Concentration, vitreous, mean, mean of 5 animals, 3 x 40 µg eye drops, 2 h after last instillation): 80 ng/g; concentration at 2 h ([7]; Sprague-Dawley, whole eye, Concentration, whole eye, individual animals 1-5, 3 x 40 µg as 10 µL eye drops 2 h apart, sampled 2 h after last instillation): 10900 ng/g; concentration at 2 h ([7]; Sprague-Dawley, whole eye, Concentration, whole eye, mean, mean of 5 animals, 3 x 40 µg eye drops, 2 h after last instillation): 9940 ng/g; Content in the whole eye relative to melatonin ([7]; agomelatine 9.94 ng/mg vs melatonin 7.44 ng/mg): 1.33 times; Concentration, whole eye ([7]; individual animals 1-5, 3 x 40 µg as 10 µL eye drops 2 h apart, sampled 2 h after last instillation): 10.64 ng/mg and 11.35 ng/mg and 9.16 ng/mg and 7.67 ng/mg; Concentration, vitreous ([7]; individual animals 1-5, 3 x 40 µg eye drops, 2 h after last instillation): 0.073 ng/mg and 0.099 ng/mg and 0.077 ng/mg and 0.084 ng/mg; Concentration, vitreous, mean ([7]; mean of 5 animals, 3 x 40 µg eye drops, 2 h after last instillation): 0.081 ng/mg; Amount retained in the whole eye [7, 8]: 1.59 µg; Fraction of the 120 µg given retained in the whole eye [7, 8]: ~1.3%; concentration at 2 h ([7]; retina, Concentration in the retina (molar), converted from ng/mg): 378 nM; concentration at 2 h ([7]; vitreous humor, Concentration in the vitreous humor (molar), converted from ng/mg): 332 nM; Retina concentration relative to melatonin ([7]; retina): twenty-two times higher |
